From patent US8822517B2, “Arylosulfonamides for the treatment of CNS diseases” (Adamed SP. Z O.O., priority 2010, dated 2014)

Tests used:
dopaminergic D2 receptor = dopaminergic D2 receptor (Homo sapiens, UniProt P14416); test: Cellular functional assay, dopaminergic D2 receptor (agonism/antagonism); assay type: cell-based; conditions: HEK293; for activation at 1 µM: agonist effect, percent of control specific agonist response (3 μM dopamine for control), 1×10^−6 M, D2S (h), HEK-293 cells, read-out: D2-ag [%]; for inhibition at 1 µM: read-out: D2-antag. [%]
Chain of dopaminergic D2 receptor (P14416 whole entry): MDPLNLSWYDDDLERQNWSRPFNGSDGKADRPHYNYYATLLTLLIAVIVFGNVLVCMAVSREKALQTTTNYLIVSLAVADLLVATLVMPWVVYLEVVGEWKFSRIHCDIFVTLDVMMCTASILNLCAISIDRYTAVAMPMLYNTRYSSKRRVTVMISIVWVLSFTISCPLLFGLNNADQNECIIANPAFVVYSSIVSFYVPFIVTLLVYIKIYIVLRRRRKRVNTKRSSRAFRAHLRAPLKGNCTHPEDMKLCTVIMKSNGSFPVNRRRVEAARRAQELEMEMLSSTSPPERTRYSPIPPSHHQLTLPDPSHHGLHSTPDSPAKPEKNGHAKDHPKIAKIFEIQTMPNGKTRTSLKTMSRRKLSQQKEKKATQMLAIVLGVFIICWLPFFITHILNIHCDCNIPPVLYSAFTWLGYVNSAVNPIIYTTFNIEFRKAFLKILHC
Procedure: (§1) The compounds were tested at the concentration of 1×10^−6M.
(§2) In the Tables ag refers to agonism, and antag to antagonism).

[1] = target: T1, serotoninergic 5-HT1A receptor (Homo sapiens, UniProt P08908); test: Binding assay 5-HT1A (h), [3H]8-OH-DPAT, HEK-293 cells; parameters: expressed in transfected cells; host or cells: HEK-293 cells; conditions: read-out: 5-HT1A
T1 sequence (P08908 1-422): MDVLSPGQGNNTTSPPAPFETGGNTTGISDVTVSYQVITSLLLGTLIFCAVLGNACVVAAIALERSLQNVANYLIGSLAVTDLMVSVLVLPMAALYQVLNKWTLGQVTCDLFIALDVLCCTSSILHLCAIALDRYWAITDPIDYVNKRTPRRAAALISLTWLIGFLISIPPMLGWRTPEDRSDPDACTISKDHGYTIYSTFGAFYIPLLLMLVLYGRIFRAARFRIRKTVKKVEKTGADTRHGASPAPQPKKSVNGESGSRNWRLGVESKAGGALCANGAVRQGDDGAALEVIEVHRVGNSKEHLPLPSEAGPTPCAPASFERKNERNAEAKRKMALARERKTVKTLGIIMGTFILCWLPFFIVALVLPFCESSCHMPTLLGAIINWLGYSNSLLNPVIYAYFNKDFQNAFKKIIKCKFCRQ
Outline: (§3)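 Binding read by scintillation counting. Non-specific component defined by excess unlabelled ligand and removed from total counts. Compounds at 1×10^−6 M.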

dopaminergic D3 receptor [2] = target: T2, dopaminergic D3 receptor (Homo sapiens, UniProt P35462); test: Cellular functional assay, dopaminergic D3 receptor (agonism/antagonism); assay type: cell-based; conditions: for inhibition at 1 µM: CHO, read-out: D3-antag. [%]; for activation at 1 µM: agonist effect, percent of control specific agonist response (300 nM dopamine for control), 1×10^−6 M, D3 (h), CHO cells, read-out: D3-ag [%]
T2 sequence (P35462 whole entry): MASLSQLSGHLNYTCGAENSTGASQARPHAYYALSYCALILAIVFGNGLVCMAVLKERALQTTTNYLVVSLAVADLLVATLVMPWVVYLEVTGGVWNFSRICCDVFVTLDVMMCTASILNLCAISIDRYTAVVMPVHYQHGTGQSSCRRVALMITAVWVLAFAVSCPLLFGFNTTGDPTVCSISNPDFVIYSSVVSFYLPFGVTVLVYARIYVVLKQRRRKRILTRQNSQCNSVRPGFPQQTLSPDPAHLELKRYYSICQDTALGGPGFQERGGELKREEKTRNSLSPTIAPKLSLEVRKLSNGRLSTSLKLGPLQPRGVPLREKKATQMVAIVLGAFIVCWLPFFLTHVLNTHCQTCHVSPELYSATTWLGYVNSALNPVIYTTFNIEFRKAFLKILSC
Procedure: as §1, §2

[3] = target: T3, serotonine transporter (SERT) receptor (Homo sapiens, UniProt P31645); test: Binding assay SERT (h), [3H]imipramine, CHO cells; conditions: read-out: SERT [%]
T3 construct: expressed in transfected cells; host or cells: CHO cells
T3 sequence (P31645 whole entry): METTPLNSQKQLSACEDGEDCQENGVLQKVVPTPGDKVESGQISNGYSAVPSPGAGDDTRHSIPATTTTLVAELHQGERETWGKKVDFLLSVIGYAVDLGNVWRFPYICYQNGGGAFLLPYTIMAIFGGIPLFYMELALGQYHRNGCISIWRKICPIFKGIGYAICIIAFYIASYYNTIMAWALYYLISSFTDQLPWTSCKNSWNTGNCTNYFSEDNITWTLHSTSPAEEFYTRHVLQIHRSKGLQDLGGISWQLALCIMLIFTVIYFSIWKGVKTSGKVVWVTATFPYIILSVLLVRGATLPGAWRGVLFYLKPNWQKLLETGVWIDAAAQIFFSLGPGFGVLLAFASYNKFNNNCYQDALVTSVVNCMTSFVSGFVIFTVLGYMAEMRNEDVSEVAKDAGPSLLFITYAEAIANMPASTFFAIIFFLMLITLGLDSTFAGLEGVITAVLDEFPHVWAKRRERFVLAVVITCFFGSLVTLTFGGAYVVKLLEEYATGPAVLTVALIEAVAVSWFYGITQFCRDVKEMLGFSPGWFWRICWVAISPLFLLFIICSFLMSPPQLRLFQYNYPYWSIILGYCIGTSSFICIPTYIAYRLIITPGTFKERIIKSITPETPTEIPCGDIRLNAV
Outline: as §3

[4] = target: T4, histaminergic H1 receptor (Homo sapiens, UniProt P35367); test: Cellular functional assay, histaminergic H1 receptor (agonism/antagonism); assay type: cell-based; conditions: for activation at 1 µM: agonist effect, percent of control specific agonist response, compounds tested at 1×10^−6M, read-out: H1 -ag [%]; for inhibition at 1 µM: read-out: H1 -antag. [%]
T4 sequence (P35367 whole entry): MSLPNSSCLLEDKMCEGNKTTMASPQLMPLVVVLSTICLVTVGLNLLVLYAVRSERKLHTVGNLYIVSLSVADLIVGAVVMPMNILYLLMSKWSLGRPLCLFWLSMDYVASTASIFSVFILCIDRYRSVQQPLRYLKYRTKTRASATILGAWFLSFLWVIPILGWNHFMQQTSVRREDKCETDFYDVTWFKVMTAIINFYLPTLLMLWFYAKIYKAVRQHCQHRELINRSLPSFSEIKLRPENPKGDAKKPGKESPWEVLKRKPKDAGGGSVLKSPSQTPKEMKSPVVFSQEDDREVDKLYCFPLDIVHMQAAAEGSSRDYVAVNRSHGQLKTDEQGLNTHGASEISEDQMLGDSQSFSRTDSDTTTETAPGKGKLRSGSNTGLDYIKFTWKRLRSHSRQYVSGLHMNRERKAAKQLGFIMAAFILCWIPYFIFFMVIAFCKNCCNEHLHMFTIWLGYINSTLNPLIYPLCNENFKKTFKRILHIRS
Procedure: as §1, §2

dopaminergic D3 receptor [5] = target: T2, dopaminergic D3 receptor; test: Binding assay D3 (h), [3H]methyl-spiperone, CHO cells; parameters: expressed in transfected cells; host or cells: CHO cells; conditions: read-out: D3 [%]
Outline: as §3

adrenergic α2C receptor = target: T5, adrenergic α2C receptor (Homo sapiens, UniProt P18825); test: Cellular functional assay, adrenergic α2C receptor (agonism/antagonism); assay type: cell-based; conditions: for activation at 1 µM: agonist effect, percent of control specific agonist response, compounds tested at 1×10^−6M, read-out: α2C −ag [%]; for inhibition at 1 µM: read-out: α2C −antag. [%]
T5 sequence (P18825 1-462): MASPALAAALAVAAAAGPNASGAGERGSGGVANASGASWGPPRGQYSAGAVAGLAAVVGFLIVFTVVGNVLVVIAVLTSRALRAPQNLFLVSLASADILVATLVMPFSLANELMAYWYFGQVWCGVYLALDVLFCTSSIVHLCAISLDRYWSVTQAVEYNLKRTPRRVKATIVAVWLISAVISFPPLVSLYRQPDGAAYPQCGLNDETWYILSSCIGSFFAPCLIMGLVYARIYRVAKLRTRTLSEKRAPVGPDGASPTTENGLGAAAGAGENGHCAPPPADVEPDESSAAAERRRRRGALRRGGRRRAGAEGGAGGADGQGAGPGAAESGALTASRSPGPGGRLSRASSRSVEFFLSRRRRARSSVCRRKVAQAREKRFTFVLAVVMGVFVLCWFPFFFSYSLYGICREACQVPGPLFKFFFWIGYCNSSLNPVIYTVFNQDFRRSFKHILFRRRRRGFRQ
Procedure: as §1, §2

[6] = target: T4, histaminergic H1 receptor; test: Binding assay H1 (h), [3H]pyrilamine, HEK-293 cells; parameters: expressed in transfected cells; host or cells: HEK-293 cells; conditions: read-out: H1 [%]
Outline: as §3

adrenergic α1A receptor = target: T6, adrenergic α1A receptor (Homo sapiens, UniProt P35348); test: Cellular functional assay, adrenergic α1A receptor (agonism/antagonism); assay type: cell-based; conditions: for activation at 1 µM: agonist effect, percent of control specific agonist response, compounds tested at 1×10^−6M, read-out: α1A -ag [%]; for inhibition at 1 µM: read-out: α1A -antag. [%]
T6 sequence (P35348 1-466): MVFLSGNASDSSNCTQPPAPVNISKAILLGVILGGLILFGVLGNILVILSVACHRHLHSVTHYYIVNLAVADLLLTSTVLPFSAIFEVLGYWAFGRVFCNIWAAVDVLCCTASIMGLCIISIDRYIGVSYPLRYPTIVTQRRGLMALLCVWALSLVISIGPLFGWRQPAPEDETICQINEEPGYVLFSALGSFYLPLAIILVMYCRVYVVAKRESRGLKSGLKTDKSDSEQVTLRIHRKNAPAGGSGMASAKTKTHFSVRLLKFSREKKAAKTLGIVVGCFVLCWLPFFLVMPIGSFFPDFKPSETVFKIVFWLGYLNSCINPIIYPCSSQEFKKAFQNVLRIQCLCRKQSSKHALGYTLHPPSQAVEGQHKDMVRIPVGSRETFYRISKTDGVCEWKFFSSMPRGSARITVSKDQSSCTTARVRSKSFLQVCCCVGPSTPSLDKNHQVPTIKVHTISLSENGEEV
Outline: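 Human receptors tested in cell-based functional format for both agonist and antagonist modes. Single compound concentration of 1×10^−6M.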

| SMILES | activation at 1 µM (dopaminergic D2 receptor) | inhibition at 1 µM (dopaminergic D2 receptor) | inhibition at 1 µM [1] | inhibition at 1 µM (dopaminergic D3 receptor [2]) | activation at 1 µM (dopaminergic D3 receptor [2]) | inhibition at 1 µM [3] | activation at 1 µM [4] | inhibition at 1 µM [4] | inhibition at 1 µM (dopaminergic D3 receptor [5]) | activation at 1 µM (adrenergic α2C receptor) | inhibition at 1 µM (adrenergic α2C receptor) | inhibition at 1 µM [6] | activation at 1 µM (adrenergic α1A receptor) | inhibition at 1 µM (adrenergic α1A receptor) |
| --- | --- | --- | --- | --- | --- | --- | --- | --- | --- | --- | --- | --- | --- | --- |
| O=S(=O)(NCCCCN1CCN(c2nsc3ccccc23)CC1)c1ccc2cc(Cl)ccc2c1 [Compound 61, N-[4-[4-(1,2-Benzothiazol-3-yl)piperazin-1-yl]butyl]-6-chloro-naphthalene-2-sulphonamide] | 4% | 77% | 94% | 45% | 4% | 55% | 1% | 76% | 96% | 1% | 18% | 97% | 0% | 100% |
| Cc1c(S(=O)(=O)NCCCCN2CCN(c3noc4ccccc34)CC2)sc2ccc(F)cc12 [Compound 81, N-[4-[4-(1,2-Benzoxazol-3-yl)piperazin-1-yl]butyl]-5-fluoro-3-methylbenzothiophene-2-sulphonamide] | 4% | 73% | 92% | 76% | -10% | 28% | 1% | 38% | 97% | 9% | 20% | 93% | 1% | 100% |
| O=S(=O)(NCCCCN1CCC(c2noc3cc(F)ccc23)CC1)c1ccc2cc(Cl)ccc2c1 [Compound 97, 6-Chloro-N-[4-[4-(6-fluoro-1,2-benzoxazol-3-yl)piperidin-1-yl]butyl]naphthalene-2-sulphonamide] | 4% | 95% | 75% | 87% | -23% | 61% | 3% | 57% | 100% | -4% | 36% | 91% | 0% | 99% |
| O=S(=O)(NCCCN1CCC(c2noc3cc(F)ccc23)CC1)c1ccc2cc(Cl)ccc2c1 [Compound 98, 6-Chloro-N-[3-[4-(6-fluoro-1,2-benzoxazol-3-yl)piperidin-1-yl]propyl]naphthalene-2-sulphonamide] | 4% | 80% | 80% | 109% | -10% | 54% | -1% | 78% | 104% | -1% | 16% | 100% | 0% | 99% |
| Cc1c(S(=O)(=O)NCCCCN2CCC(c3noc4cc(F)ccc34)CC2)sc2ccc(F)cc12 [Compound 101, 5-Fluoro-N-[4-[4-(6-fluoro-1,2-benzoxazol-3-yl)piperidin-1-yl]butyl]-3-methylbenzothiophene-2-sulphonamide] | 6% | 85% | 82% | 112% | -18% | 47% | 33% | 94% | 92% | 1% | 46% | 97% | 0% | 100% |
| Cc1c(S(=O)(=O)NCCCN2CCC(c3noc4cc(F)ccc34)CC2)sc2ccc(F)cc12 [Compound 102, 5-Fluoro-N-[3-[4-(6-fluoro-1,2-benzoxazol-3-yl)piperidin-1-yl]propyl]-3-methylbenzothiophene-2-sulphonamide] | 1% | 85% | 92% | 83% | 4% | 38% | 0% | 48% | 103% | -7% | 14% | 94% | 0% | 100% |
| O=S(=O)(NCCCCN1CCN(c2nsc3ccccc23)CC1)c1cc2ccccc2s1 [Compound 239, N-[4-[4-(1,2-Benzothiazol-3-yl)piperazin-1-yl]butyl]benzothiophene-2-sulphonamide] | 13% | 84% | 98% | 84% | 6% | 64% | 0% | 54% | 102% | 3% | 33% | 98% | -1% | 100% |
| O=S(=O)(NCCCCN1CCN(c2nsc3ccccc23)CC1)c1csc2ccccc12 [Compound 240, N-[4-[4-(1,2-Benzothiazol-3-yl)piperazin-1-yl]butyl]benzothiophene-3-sulphonamide] | 3% | 83% | 98% | 72% | 8% | 46% | 0% | 69% | 99% | 13% | 35% | 92% | 0% | 100% |
| O=S(=O)(NCCCCN1CCN(c2nsc3ccccc23)CC1)c1cc2ccc(Cl)cc2s1 [Compound 241, N-[4-[4-(1,2-Benzothiazol-3-yl)piperazin-1-yl]butyl]-6-chlorobenzothiophene-2-sulphonamide] | 6% | 82% | 98% | 78% | 7% | 50% | 1% | 47% | 97% | -1% | 14% | 97% | 0% | 95% |
